In patent US10188656B2, “Methods of treatment of malignancies” (Agios Pharmaceuticals, Inc., priority 2015, dated 2019):

Legend:
Type in all cases: in vivo, human
[1] = test system: 2-HG plasma levels; assay: Phase 1/2 study: pharmacodynamic response, 2-HG plasma levels; conditions: most subjects with R140Q mutation, all doses; sustained reduction by Day 1 of Cycle 2
Description: Subjects in the dose escalation phase and Part 1 Expansion also will undergo PK/PD assessments over a 10-hour period on C1D15, C2D1, and C4D1. […] These subjects will have urine collected for PK/PD evaluation at screening; prior to dosing on C1D15, C2D1 and Day 1 of all cycles thereafter; and at the End of Treatment visit. Available bone marrow biopsy samples also will be assessed for 2-HG and α-KG levels.
The starting dose of COMPOUND 1 recommended for evaluation is 100 mg QD. This is based on the safety, PK, pharmacodynamics and clinical activity of COMPOUND 1 observed to date in AG221-C-001. […] Thus a dose of 100 mg should adequately achieve inhibition of 2-HG in subjects with either R140Q or R172K mutation.
Serial blood sampling for determination of concentration-time profiles of COMPOUND 1 and its metabolite (6-(6-(trifluoromethyl)pyridin-2-yl)-N2-(2-(trifluoromethyl)pyridin-4-yl)-1,3,5-triazine-2,4-diamine). Urine sampling for determination of concentrations of COMPOUND 1 and its metabolite (6-(6-(trifluoromethyl)pyridin-2-yl)-N2-(2-(trifluoromethyl)pyridin-4-yl)-1,3,5-triazine-2,4-diamine) (dose escalation and Part 1 expansion subjects only). Blood and bone marrow sampling for determination of 2-HG and α-KG levels.

[2] = Phase 1/2 study: safety (AEs, NCI CTCAE v4.03); conditions: 100 mg, including ≥Grade 3
Description: Monitoring of AEs, including determination of DLTs, serious adverse events (SAEs), and AEs leading to discontinuation; safety laboratory parameters; physical examination findings; vital signs; 12-lead ECGs; LVEF; and ECOG PS.
The severity of AEs will be assessed by the NCI CTCAE, Version 4.03.

[3] = test system: advanced hematologic malignancies with an IDH2 mutation; assay: Example 2: NRAS mutation status at screening versus COMPOUND 1 response (next generation sequencing, Fisher's exact test)
Description: A subset of the clinical samples from the trial described in Example 1 were analyzed at screening. Sample types included bone marrow, peripheral blood and mononuclear cells isolated from bone marrow or peripheral blood. DNAs were extracted from these samples and sequenced at Foundation Medicine (see http://foundationone.com/learn.php) using next generation sequencing technique.
A total of 60 genes were identified to carry at least one mutation in the analyzed set (including IDH2 gene). Fisher's exact test was conducted to evaluate the association of somatic mutations with clinical response (responders include CR, CRp, CRi and PR, indicated as +, while none-responders include SD and PD, indicated as − in Table 9). The P-values were adjusted by multiple-test correction.
Mutation status positive (+) means any known mutation(s) in NRAS, and negative (−) means no mutation in NRAS was present.
Positive response status (+) includes CR, mCR and PR and negative response status (−) includes stable disease (SD) and pregressive disease (PD).

[4] = test system: rrAML with an IDH2 mutation; assay: Example 5: FoundationOne Heme panel co-mutations versus response to COMPOUND 1 in rrAML patients
Description: FoundationOne Heme panel analysis was performed on 100 screening samples from rrAML patients in the trial described in Example 1. Sample types included peripheral blood and bone marrow.
While rare, co-occurring mutations in TET2 (5 patients) and IDH1 (4 patients) were also observed in this cohort. Mechanistically, mutations in these genes may counteract the efficacy of COMPOUND 1; however, presence of either of these mutated genes was not associated with significant decrease in ORR or complete response (CR) (Table 10).
To further investigate the association between NRAS mutations and ORR to COMPOUND 1, a more detailed analysis of individual mutation sites was performed. NRAS mutations at G12, G13, and Q61 are the most highly characterized sites known to result in constitutive RAS signaling, see Prior I A, Lewis P D, Mattos C. A comprehensive survey of Ras mutations in cancer, Cancer Res. 2012; 72(10):2457-67. When mutations at these sites were analyzed versus ORR to COMPOUND 1, the observed decrease in ORR became statistically significant (p=0.002, see, FIG. 9A and Table 11). Table 11 provides a contingency table indicating statistical significance of lower overall response rate seen in patients presenting with an NRAS co-mutation.

[5] = rrAML, co-occurring ASXL1 mutation
[6] = rrAML, co-occurring ATM mutation
[7] = rrAML, co-occurring BCOR mutation
[8] = rrAML, co-occurring BCORL1 mutation
[9] = rrAML, co-occurring CBL mutation
[10] = rrAML, co-occurring CEBPA mutation
[11] = rrAML, co-occurring CUX1 mutation
[12] = rrAML, co-occurring DNMT3A mutation
[13] = rrAML, co-occurring ETV6 mutation
[14] = rrAML, co-occurring EZH2 mutation
[15] = rrAML, co-occurring FLT3 mutation
[16] = rrAML, co-occurring GATA2 mutation
[17] = rrAML, co-occurring IDH1 mutation
[18] = rrAML, co-occurring JAK2 mutation
[19] = rrAML, co-occurring KMT2A mutation
[20] = rrAML, co-occurring KRAS mutation
[21] = rrAML, co-occurring NPM1 mutation
[22] = rrAML, co-occurring NRAS mutation
[23] = rrAML, co-occurring PHF6 mutation
[24] = rrAML, co-occurring PTPN11 mutation
[25] = rrAML, co-occurring RUNX1 mutation
[26] = rrAML, co-occurring SETBP1 mutation
[27] = rrAML, co-occurring SF3B1 mutation
[28] = rrAML, co-occurring SRSF2 mutation
[29] = rrAML, co-occurring STAG2 mutation
[30] = rrAML, co-occurring TET2 mutation
[31] = rrAML, co-occurring TP53 mutation
[32] = rrAML, co-occurring U2AF1 mutation
[33] = rrAML, co-occurring WT1 mutation

SMILES: CC(C)(O)CNc1nc(Nc2ccnc(C(F)(F)F)c2)nc(-c2cccc(C(F)(F)F)n2)n1 [COMPOUND 1, 2-methyl-1-[(4-[6-(trifluoromethyl)pyridin-2-yl]-6-{[2-(trifluoromethyl)pyridin-4-yl]amino}-1,3,5-triazin-2-yl)amino]propan-2-ol]
- inhibition of 2-HG plasma levels [1]: up to 98%
- safety profile [2]: consistent with that of lower doses
- number of patients ([3]; response status +, NRAS mutation +): 2
- number of patients ([3]; response status +, NRAS mutation −): 55
- number of patients ([3]; response status − (SD, PD), NRAS mutation +): 21
- number of patients ([3]; response status − (SD, PD), NRAS mutation −): 40
- number of patients, No Response ([4]; NRAS mt (G12, G13, Q61)): 13
- number of patients, Response ([4]; NRAS mt (G12, G13, Q61)): 1
- number of patients, No Response ([4]; NRAS wt): 37
- number of patients, Response ([4]; NRAS wt): 40
- ORR ([4]; patients with the least (≤3) co-occurring mutations): 69.2%
- ORR ([4]; patients with the most (≥6) co-occurring mutations): 23.3%
- CR [4, 5]: 0.269
- CR, OR [4, 5]: 0.583
- ORR [4, 5]: 0.385
- ORR, OR [4, 5]: 0.784
- ORR ([4]; rrAML, co-occurring ASXL1 mutation (text)): 39%
- CR [4, 6]: 0.500
- CR, OR [4, 6]: 1.721
- ORR [4, 6]: 0.500
- ORR, OR [4, 6]: 1.306
- CR [4, 7]: 0.308
- CR, OR [4, 7]: 0.743
- ORR [4, 7]: 0.385
- ORR, OR [4, 7]: 0.800
- CR [4, 8]: 0.000
- CR, OR [4, 8]: 0.334
- ORR [4, 8]: 0.000
- ORR, OR [4, 8]: 0.254
- CR [4, 9]: 0.333
- CR, OR [4, 9]: 0.853
- ORR [4, 9]: 0.333
- ORR, OR [4, 9]: 0.646
- CR [4, 10]: 0.167
- CR, OR [4, 10]: 0.331
- ORR [4, 10]: 0.167
- ORR, OR [4, 10]: 0.250
- CR [4, 11]: 0.500
- CR, OR [4, 11]: 1.721
- ORR [4, 11]: 0.500
- ORR, OR [4, 11]: 1.306
- CR [4, 12]: 0.359
- CR, OR [4, 12]: 0.945
- ORR [4, 12]: 0.513
- ORR, OR [4, 12]: 1.509
- CR [4, 13]: 0.000
- CR, OR [4, 13]: 0.334
- ORR [4, 13]: 0.500
- ORR, OR [4, 13]: 1.306
- CR [4, 14]: 0.200
- CR, OR [4, 14]: 0.418
- ORR [4, 14]: 0.200
- ORR, OR [4, 14]: 0.316
- CR [4, 15]: 0.200
- CR, OR [4, 15]: 0.408
- ORR [4, 15]: 0.200
- ORR, OR [4, 15]: 0.306
- CR [4, 16]: 0.000
- CR, OR [4, 16]: 0.334
- ORR [4, 16]: 0.000
- ORR, OR [4, 16]: 0.254
- CR [4, 17]: 0.250
- CR, OR [4, 17]: 0.563
- ORR [4, 17]: 0.500
- ORR, OR [4, 17]: 1.310
- CR [4, 18]: 0.000
- CR, OR [4, 18]: 0.182
- ORR [4, 18]: 0.000
- ORR, OR [4, 18]: 0.138
- CR [4, 19]: 0.286
- CR, OR [4, 19]: 0.662
- ORR [4, 19]: 0.357
- ORR, OR [4, 19]: 0.703
- CR [4, 20]: 0.200
- CR, OR [4, 20]: 0.418
- ORR [4, 20]: 0.400
- ORR, OR [4, 20]: 0.864
- CR [4, 21]: 0.250
- CR, OR [4, 21]: 0.548
- ORR [4, 21]: 0.417
- ORR, OR [4, 21]: 0.924
- CR [4, 22]: 0.063
- CR, OR [4, 22]: 0.099
- ORR [4, 22]: 0.188
- ORR, OR [4, 22]: 0.270
- ORR ([4]; rrAML, co-occurring NRAS mutation (text)): 19%
- CR [4, 23]: 0.333
- CR, OR [4, 23]: 0.850
- ORR [4, 23]: 0.500
- ORR, OR [4, 23]: 1.314
- CR [4, 24]: 0.000
- CR, OR [4, 24]: 0.148
- ORR [4, 24]: 0.000
- ORR, OR [4, 24]: 0.112
- CR [4, 25]: 0.217
- CR, OR [4, 25]: 0.429
- ORR [4, 25]: 0.261
- ORR, OR [4, 25]: 0.411
- ORR ([4]; rrAML, co-occurring RUNX1 mutation (text)): 26%
- CR [4, 26]: 0.000
- CR, OR [4, 26]: 0.237
- ORR [4, 26]: 0.000
- ORR, OR [4, 26]: 0.180
- CR [4, 27]: 0.000
- CR, OR [4, 27]: 0.237
- ORR [4, 27]: 0.000
- ORR, OR [4, 27]: 0.180
- CR [4, 28]: 0.293
- CR, OR [4, 28]: 0.637
- ORR [4, 28]: 0.341
- ORR, OR [4, 28]: 0.598
- ORR ([4]; rrAML, co-occurring SRSF2 mutation (text)): 34%
- CR [4, 29]: 0.455
- CR, OR [4, 29]: 1.462
- ORR [4, 29]: 0.455
- ORR, OR [4, 29]: 1.091
- CR [4, 30]: 0.333
- CR, OR [4, 30]: 0.853
- ORR [4, 30]: 0.333
- ORR, OR [4, 30]: 0.646
- CR [4, 31]: 0.000
- CR, OR [4, 31]: 0.334
- ORR [4, 31]: 0.000
- ORR, OR [4, 31]: 0.254
- CR [4, 32]: 0.500
- CR, OR [4, 32]: 1.721
- ORR [4, 32]: 1.000
- ORR, OR [4, 32]: 6.678
- CR [4, 33]: 0.333
- CR, OR [4, 33]: 0.853
- ORR [4, 33]: 0.333
- ORR, OR [4, 33]: 0.646
